Data as given in US12291494B2, “Methods of treating fibrosis” (Nogra Pharma Limited, priority 2012, dated 2025).

How the values were obtained:
Male C57bl6 mice = assay: CCl4-induced liver fibrosis: histology (Metavir score); assay type: in vivo
Method: Liver fibrosis was induced in Male C57bl6 mice (Charles River, l'Arbresle, France) by injection of carbon tetrachloride (CCl4). The C57bl6 mice weighed 22-25 g and were maintained in laboratory conditions for 1 week before experiment. Animals were housed 5 per cage with food and water available ad libitum.
The effectiveness of compound 34 (specific ligand of PPARg) as compared to JWH-133 (anti-fibrogenic agent) was evaluated. Compound 34 was administered orally in combination with CCl4 injections for ca. 5 weeks. Compound 34 was dosed daily at 200 uL of a 30 mM solution. JWH-133 was administered daily via intraperitoneal injections at 3 mg/kg (dose volume=100 uL). The model of liver fibrosis is induced by chronic exposure to increased dosages of CCl4 for 5 weeks. The first week, mice received an intraperitoneal injection of CCl4, resuspended in olive oil, at the dosage of 80 μl/kg of mice body weight twice a week. At week 2, 3 injections of CCl4 at the dosage of 160 μl/kg were performed every two days. At week 3, 3 injections of CCl4 at the dosage of 240 μl/kg were performed every two days. At week 4, 3 injections of CCl4 at the dosage of 320 μl/kg were performed every two days. Mice were euthanized, at week 5, 3 days after the last CCl4 administration.
The formalin-fixed liver tissue was processed and 5 μm thick paraffin sections were stained with hematoxylin and eosin (H&E) and Picrosirius red staining (specific coloration for collagen in tissue sections) to evaluate the degree of fibrosis in the liver. Each section was analyzed blindly by 3 different experimenters for the quantification of the degree of fibrosis for each lobe of the liver (5) using the Metavir score (see FIG. 2A for Metavir Score chart). The photographs seen in FIG. 2B were obtained with a 20× objective.

Collagen-1 = assay: Liver gene expression by quantitative Real Time PCR: collagen-1; assay type: in vivo, mice
Method: (§1) The effect of administration of compound 34 (GED) and the specific CB2 agonist (JWH-133) was evaluated on the level of gene expression of cytokines (IL-1β, TNF-α) and genes involved in the mechanism of fibrosis by quantitative Real Time PCR.
(§2) Total RNA was isolated from livers using Rneasy kit (Macherey Nagel, Hoerdt, France) according to the manufacturer's instructions. RNA quantification was performed using spectrophotometry. After treatment at 37° C. for 30 min with 20-50 units of RNase-free DNase I (Roche Diagnostics Corporation, Indianapolis, IN, USA), oligo-dT primers (Roche Diagnostics Corporation, Indianapolis, USA) were used to synthesize single-stranded cDNA. mRNAs were quantified using SYBR green Master Mix (Applera, Courtaboeuf, France) with murine specific oligonucleotides (see Table 2) in a GeneAmp Abiprism 7000 (Applera, Courtaboeuf, France). In each assay, calibrated and no-template controls were included. Each sample was run in triplicate. SYBR green dye intensity was analyzed using the Abiprism 7000 SDS software (Applera, Courtaboeuf, France). All results were normalized to the unaffected housekeeping gene β-actin.

α-SMA = assay: Liver gene expression by quantitative Real Time PCR: α-SMA; assay type: in vivo, mice; conditions: liver mRNA, normalized to β-actin; CCl4 group 65.51 ± 22.24
Method: as §1, §2

In the case of `CCCC(C)(C)c1ccc2c(c1)OC(C)(C)[C@@H]1CC=C(C)C[C@@H]21` [JWH-133], the “decrease of the fibrotic score (adapted Metavir score) compared to untreated animals” value (Male C57bl6 mice; FIG. 3B) is reported as 14.2%, the “mean Metavir score (FIG. 3A)” value (Male C57bl6 mice; compound 34 30 mM 200 uL oral daily, JWH-133 3 mg/kg i.p. daily, CCl4 vehicle group 2.5±0.5) is reported as 2±0 and the “degree of fibrosis (Metavir)” value (Male C57bl6 mice; result in words) is reported as “decrease in the degree of fibrosis from severe to moderate fibrosis”. For the same compound, the “decrease of hepatic fibrotic lesions” value (Male C57bl6 mice; summary statement) was 14%, the “liver concentration of collagen-1 mRNA” value (Collagen-1; CCl4 mice, result in words) was “normalizes” and the Collagen-1 (Collagen-1; liver mRNA, normalized to β-actin, CCl4 group 138.12 ± 34.68) was 87.59 ± 16.97. For the same compound, the α-SMA (α-SMA) was 30.07 ± 4.7.
